Laboratory results published in patent publication EP0423373A1, “STYRENE DERIVATIVE AND METHOD OF PRODUCTION THEREOF, POLYSTYRENE DERIVATIVE PRODUCED THEREFROM AND METHOD OF PRODUCING THE SAME, AND ULTRAVIOLET ABSORBENT AND COSMETICS CONTAINING SAID POLYSTYRENE DERIVATIVE AS ACTIVE INGREDIENT” (EARTH CHEMICAL CO., LTD., priority 1989, dated 1990).
Each block holds one compound with its values, some of them ahead of it.

Columns and labels:
[1] = Ultraviolet absorption spectrum; assay type: physicochemical; conditions: ethanol solution, 10 ppm, quartz cell, optical path 10 mm
Excerpt: The wavelength at the maximum absorption (λ max) and the molar extinction coefficient (E) were found by measuring ultraviolet absorption spectrum of an ethanol solution of the sample having a concentration of 10 ppm in a quartz cell having an optical path of 10 mm by means of a spectrophotometer (UV-200S, made by SHIMADZU CORPORATION).

skin of a quinea pig = experiment: Percutaneous absorption, diffusion cell (Franz); assay type: in vitro ADME; conditions: 1 % aqueous solution of sodium salt, 33 C, 20 hours
Experimental: The skin of a quinea pig was peeled, washed with physiological saline and then set in a percutaneous absopriton apparatus which was made in accordance with the description in Franz, T. J, J. Invest, Dermotal 64 , 190, 1975, by means of a diffusion cell. The sample room was filled with […] of a 1 % aqueous solution of sodium salt of the obtained polystyrene derivative, and the acceptor was filled with physiological saline. After maintaining at 33 C for 20 hours while stirring with a magnetic stirrier, the physiological saline in the acceptor was taken out, and the ultraviolet absorbency was measured. As the result, when the polystyrene derivative was used, the absorption curve of the ultraviolet absorption spectrum was similar to that obtained when the physiological saline was solely used as a negative control. When a compound having a lower molecular weight (1 % aqueous solution of sodium salt of p-aminobenzoic acid) was used as a positive control, the compound was observed by the ultraviolet absorption spectrum corresponding to 95 ppm in connection.

SMILES: C=Cc1ccc(CN(N=Cc2ccc(C=CC(=O)O)cc2)C(=S)NC)cc1 [Example 3, p'-carboxyvinylenebenzaldehyde 4-methyl-2-p-vinylbenzylthiosemicarbazone]
Molar extinction coefficient (ε) [1]: 60,000
Wavelength at the maximum absorption (λ max) [1]: 348 nm

SMILES: C=Cc1ccc(CN(N=Cc2ccc(N(C)C)cc2)C(=S)NC)cc1 [Example 8, p'-dimethylaminobenzaldehyde 4-methyl-2-p-vinylbenzylthiosemicarbazone]
Molar extinction coefficient (ε) [1]: 38,000
Wavelength at the maximum absorption (λ max) [1]: 358 nm

SMILES: C=Cc1ccc(CNC(=S)N(C)N=Cc2ccc(C(=O)O)cc2)cc1 [Example 2, p'-carboxybenzaldehyde 2-methyl-4-P-vinylbenzylthiosemicarbazone]
Molar extinction coefficient (ε) [1]: 40,000
Wavelength at the maximum absorption (λ max) [1]: 332 nm

SMILES: C=Cc1ccc(CN(N=Cc2ccc(C(=O)O)cc2)C(=O)NC)cc1 [Example 5, p'-carboxybenzaldehyde 4-methyl-2-p-vinylbenzylsemicarbazone]
Molar extinction coefficient (ε) [1]: 29,000
Wavelength at the maximum absorption (λ max) [1]: 310 nm

SMILES: C=Cc1ccc(CN(N=Cc2ccc(C)cc2)C(=S)NC)cc1 [Example 7, p'-methylbenzaldehyde 4-methyl-2-p-vinylbenzylthiosemicarbazone]
Molar extinction coefficient (ε) [1]: 33,000
Wavelength at the maximum absorption (λ max) [1]: 317 nm

SMILES: C=Cc1ccc(C(=O)CC(=O)c2ccc(C(=O)OC)cc2)cc1 [4-methyoxycarbonyl-4'-vinyldibenzoylmethane]
Molar extinction coefficient (ε) [1]: 33,000
Wavelength at the maximum absorption (λ max) [1]: 361 nm

SMILES: C=Cc1ccc(CN(N=Cc2ccc(Cl)cc2)C(=S)NC)cc1 [Example 9, p'-chlorobenzaldehyde 4-methyl-2-p-vinylbenzylthiosemicarbazone]
Molar extinction coefficient (ε) [1]: 41,000
Wavelength at the maximum absorption (λ max) [1]: 318 nm

SMILES: C=Cc1ccc(CN(N=Cc2ccc(C(=O)O)cc2)C(N)=O)cc1 [Example 4, p'-carboxybenzaldehyde 2-p-vinylbenzylsemicarbazone]
Molar extinction coefficient (ε) [1]: 29,000
Wavelength at the maximum absorption (λ max) [1]: 306 nm

SMILES: C=Cc1ccc(CN(N=Cc2ccc(C(=O)O)cc2)C(=S)NC)cc1 [Example 1, p'-carboxybenzaidehyde 4-methyl-2-p-vinylbenzylthiosemicarbazone]
Molar extinction coefficient (ε) [1]: 33,000
Wavelength at the maximum absorption (λ max) [1]: 331 nm

SMILES: C=Cc1ccc(CN(N=Cc2ccc([N+](=O)[O-])cc2)C(=S)NC)cc1 [Example 10, p'-nitrobenzaldehyde 4-methyl-2-p-vinylbenzylthiosemicarbazone]
Molar extinction coefficient (ε) [1]: 36,000
Wavelength at the maximum absorption (λ max) [1]: 359 nm

SMILES: C=Cc1ccc(CN(N=Cc2ccccc2)C(=S)NC)cc1 [Example 6, benzaldehyde 4-methyl-2-p-vinylbenzylthiosemicarbazone]
Molar extinction coefficient (ε) [1]: 33,000
Wavelength at the maximum absorption (λ max) [1]: 317 nm

Results, then the compound that gave them:

Molar extinction coefficient (ε) [1]: 34,000
Wavelength at the maximum absorption (λ max) [1]: 321 nm
SMILES: C=Cc1ccc(CN(N=Cc2ccco2)C(=S)NC)cc1 [Example 11, 2'-furylaldehyde 4-methyl-2-p-vinylbenzylthiosemicarbazone]

Molar extinction coefficient (ε) [1]: 46,000
Wavelength at the maximum absorption (λ max) [1]: 335 nm
SMILES: C=Cc1ccc(CN(N=CC=Cc2ccccc2)C(=S)NC)cc1 [Example 14, cinnamaldehyde 4-methyl-2-p-vinylbenzylthiosemicarbazone]

Molar extinction coefficient (ε) [1]: 36,000
Wavelength at the maximum absorption (λ max) [1]: 325 nm
SMILES: C=Cc1ccc(CN(N=Cc2ccncc2)C(=S)NC)cc1 [Example 13, isonicotinic aldehyde 4-methyl-2-p-vinylbenzylthiosemicarbazone]

compound observed in the acceptor by the ultraviolet absorption spectrum (skin of a quinea pig): 95 ppm
SMILES: Nc1ccc(C(=O)O)cc1 [p-aminobenzoic acid]

Molar extinction coefficient (ε) [1]: 39,000
Wavelength at the maximum absorption (λ max) [1]: 333 nm
SMILES: C=Cc1ccc(CN(N=Cc2cccs2)C(=S)NC)cc1 [Example 12, 2'-thienylaldehyde 4-methyl-2-p-vinylbenzylthiosemicarbazone]

Molar extinction coefficient (ε) [1]: 34,000
Wavelength at the maximum absorption (λ max) [1]: 361 nm
SMILES: C=Cc1ccc(C(=O)CC(=O)c2ccc(C(=O)O)cc2)cc1 [Example 57, 4-carboxy-4'-vinyldibenzoylmethane]
